{
  "source": "patent US12403125B2",
  "about": "“Use of Ovatodiolide against SARS-CoV-2” (Peking University Shenzhen Graduate School, priority 2020, dated 2025)",
  "key": {"[1]": {"conditions": "mice; for number of micronuclei in the reticulocytes vs negative control / number of reticulocytes in peripheral blood vs negative control: 48 and 72 hours after administration", "procedure": "In this experiment, the Formula I compound—Ovatodiolide on the peripheral blood micronucleus was tested in mice (ICR strain). This experiment mainly tested the effect of the Formula I compound—Ovatodiolide on the ratio of the occurrence of micronucleus in the peripheral blood of the mice (in vivo), so as to evaluate the level of damages caused by directly or indirectly triggered gene mutations of erythrocyte chromosomes or mitosis. ICR mice were used as the experimental subjects of this experiment, and the experiment was divided into 5 groups, the negative control group, the positive control group (Cyclophosphamide, 60 mg/kg bw ip), the Formula I compound—Ovatodiolide low dose (0.25 g/kg bw) group, the medium Dosage (0.5 g/kg bw) group and the high dose (1 g/kg bw) group, 5 mice (male) in each group, and Ovatodiolide was fed once by a gastric tube, 48 and 72 hours after the tested substances were administered, the reticulocytes and the occurrence (%) of micronucleus in the reticulocytes in the peripheral blood of the mice were evaluated."}, "SARS-CoV-2 pseudovirus": {"system": "SARS-CoV-2 pseudovirus", "test": "microbe, parasite or virus in culture", "assay_type": "cell-based"}, "[2]": {"test": "Single-dose oral acute toxicity test in rats", "assay_type": "in vivo, rats (Sprague-Dawley, S D strain)", "procedure": "This example was a single-dose oral acute toxicity safety test of the Formula I compound—Ovatodiolide in rats, and a reference for food safety assessment was provided. […] In this experiment, single-dose oral acute toxicity tests of the Formula I compound—ovatodiolide were conducted in rats (Sprague-Dawley, S D strain). The Formula I compound—Ovatodiolide was in the form of yellowish crystals, the test purity was 99.95%, 10% of DMSO was used to prepare a solution concentration of 0.1 g/mL during the experiment, the feeding volume of each rat was 10 mL/kg body weight, the rats were fed orally based on their body weights on that day, the final dose was 1 g/kg-body weight in total, and the rats were continuously observed for 14 days after administration. […] No effects on the serum liver and kidney enzyme values of the male and female rats in the treatment group, including aspartate aminotransferase (AST), alanine aminotransferase (ALT), blood urea nitrogen (BUN), and creatinine, etc."}, "[3]": {"test": "28-day feeding (repeated dose oral) toxicity test in rats", "assay_type": "in vivo, rats (Sprague-Dawley, S D strain)", "procedure": "This experiment investigated whether the Formula I compound—Ovatodiolide might cause potential side effect toxicity to human bodies for clinical safety assessment, and 28-day repeated-dose oral toxicity tests of the Formula I compound—Ovatodiolide were conducted to observe clinical side effects. The Formula I compound—Ovatodiolide was a yellowish crystal, the test purity was regarded as 99.95%, and the samples were prepared with 5% of DMSO during the tests. Rats (Sprague-Dawley, S D strain) were divided into 4 groups, the control group (5% of DMSO), the low-dose group (10 mg/kg-body weight), the medium-dose group (25 mg/kg body weight) and the high-dose group (50 mg/kg-body weight), 20 rats in each group, half males and half females, each rat was fed with a volume of 10 mL/kg-body weight, and the rats were orally fed according to their body weight on the day for 28 consecutive days. […] In view of the above test results, after the rats of the low-dose group (10 mg/kg-body weight), the medium-dose group (25 mg/kg-body weight) and the high-dose group (50 mg/kg-body weight) were orally fed respectively with the Formula I compound—Ovatodiolide for 28 days continuously, no toxic reactions was caused to various organs of the male and female rats, and the “No observed adverse effect level” (NOAEL) for the 28-day feeding toxicity test in rats was 50 mg/kg-body weight, the equivalent human dose was about 8 mg/kg-body weight."}, "CHO-K1 cells": {"system": "CHO-K1 cells", "test": "In vitro mammalian chromosome aberration test, with cytotoxicity test", "assay_type": "cell-based", "conditions": "for survival rate of the CHO-K1 cells: 24 hours", "procedure": "In this experiment, the chromosomal aberration test with mammalian cell in culture of the Formula I compound—Ovatodiolide was carried out. The Formula I compound—Ovatodiolide was yellowish crystals, and prepared with Dimethyl sulfoxide (DMSO) during the test. The cytotoxicity test was divided into two parts, in one part, CHO-K1 cells was reacted directly with the Formula I compound—Ovatodiolide, and in the other part, rat liver activating enzyme extract (S9) was used to simulate human metabolism, CHO-K1 cells, the rat liver activating enzyme extract (S9) and the Formula I compound—Ovatodiolide were mixed and then reacted."}, "influenza virus": {"system": "influenza virus", "test": "Test experiments on influenza virus in contrast to Tamiflu"}, "HIV virus": {"system": "HIV virus", "conditions": "Fitoterapia, 2000, 71(5): 574-576; cited from earlier work"}, "[4]": {"conditions": "male and female rats, 1 g/kg-body weight oral"}},
  "note": "pIC50: −log10 of the molar value.",
  "data": [
    {"smiles": "O=P1(N(CCCl)CCCl)NCCCO1", "note": "(stereo not drawn) [Cyclophosphamide, reference compound]", "values": [
      {"measurement": "number of micronuclei in the reticulocytes vs negative control", "setting": "[1]", "value": "increased significantly"},
      {"measurement": "number of reticulocytes in peripheral blood vs negative control", "setting": "[1]", "value": "significantly decreased"}
    ]},
    {"smiles": "C=C1C(=O)O[C@@H]2/C=C(\\C)C[C@H]3C=C(CC/C=C(\\C)CC[C@@H]12)C(=O)O3", "note": "[Ovatodiolide]", "values": [
      {"measurement": "inhibitory effect on coronavirus infections", "setting": "SARS-CoV-2 pseudovirus", "value": "significant inhibitory effect on coronavirus infections at the micromolar level"},
      {"measurement": "pIC50", "setting": "SARS-CoV-2 pseudovirus; Severe acute respiratory syndrome-related coronavirus, Huh-7, 64 h, read-out: IC50 for inhibiting SARS-CoV-2 infections", "value": 5.43},
      {"measurement": "equivalent human dose of the single acute dose", "setting": "[2]; from 1 g/Kg-body weight in rats", "value": "about 50 mg/kg-body weight"},
      {"measurement": "blood values (WBC, RBC, Hct, MCV, MCH, MCHC, platelets, leukocyte classification)", "setting": "[2]; [4]", "value": "no significant abnormal changes"},
      {"measurement": "serum liver and kidney enzyme values (AST, ALT, BUN, creatinine)", "setting": "[2]; [4]", "value": "No effects"},
      {"measurement": "weekly body weight and body weight gain vs control group", "setting": "[2]; [4]", "value": "no significant difference"},
      {"measurement": "histopathological examination of important organs", "setting": "[2]; rats, 1 g/kg-body weight oral", "value": "no histopathological changes in relation to the test substances"},
      {"measurement": "acute poisoning or death", "setting": "[2]; rats, single oral dose 1 g/Kg-body weight, observed 14 days", "value": "no acute poisoning or death"},
      {"measurement": "equivalent human dose of the NOAEL", "setting": "[3]; from rat NOAEL, 28-day feeding", "value": "about 8 mg/kg-body weight"},
      {"measurement": "histopathological examination of organs", "setting": "[3]; high-dose group (50 mg/kg-body weight), 28 days", "value": "no pathological changes related to organ toxicity reaction"},
      {"measurement": "body weight changes, feed consumptions, urine, blood values, serum enzyme values and organ weights vs control", "setting": "[3]; male and female rats, each treatment group, 28 days", "value": "within the normal range"},
      {"measurement": "symptoms of being poisoned or death", "setting": "[3]; rats, oral 10, 25 and 50 mg/kg-body weight, 28 days", "value": "no symptoms of being poisoned or death"},
      {"measurement": "No observed adverse effect level (NOAEL)", "setting": "[3]; rats, oral, 28 consecutive days", "value": 50, "unit": "mg/kg-body weight"},
      {"measurement": "survival rate of the CHO-K1 cells", "setting": "CHO-K1 cells; 17.5 μM, without S9 (−S9)", "value": "about 65.6%"},
      {"measurement": "survival rate of the CHO-K1 cells", "setting": "CHO-K1 cells; 75 μM, with S9 (+S9)", "value": "about 60.3%"},
      {"measurement": "frequency of chromosomal aberration in the CHO-K1 cells vs negative control", "setting": "CHO-K1 cells; 12.5, 15 and 17.5 μM (−S9) and 55, 65 and 75 μM (+S9)", "value": "did not increase significantly"},
      {"measurement": "number of micronuclei in the reticulocytes vs negative control", "setting": "[1]", "value": "no significant difference"},
      {"measurement": "number of reticulocytes in peripheral blood vs negative control", "setting": "[1]", "value": "no significant difference"},
      {"measurement": "micronucleus test result", "setting": "[1]; each dose group", "value": "negative"},
      {"measurement": "toxicity symptoms and body weight", "setting": "[1]; single gastric tube dose 0.25, 0.5, 1 g/kg bw, 48 and 72 hours", "value": "no toxicity symptoms and no differences in the body weight"},
      {"measurement": "effect on inhibiting influenza virus", "setting": "influenza virus", "value": "excellent effect on inhibiting influenza virus"},
      {"measurement": "inhibition of HIV virus", "setting": "HIV virus", "value": "can inhibit HIV virus"}
    ]}
  ]
}
